Measurements taken from patent US11649228B2, “Zinc indicators for cellular imaging” (The Board of Regents of the University of Texas System, priority 2018, dated 2023).

Tested on: primary mouse islet cells
Assay: Flow cytometry analysis and FACS of mouse islet cells labeled with ZIGIR-2 and Ex4-Cy5
Assay type: cell-based
Source text: Among islet endocrine cells, β-cells have long been known to contain a high level of total Zn^2+ in their secretory granules. However, it remains unclear how Zn^2+ activities differ among different types of secretory granules including the glucagon granule and the somatostatin granule. To address the question, the inventors combined ZIGIR-2 and flow cytometry to analyze the granular Zn^2+ activity in primary mouse islet cells. To facilitate distinguishing different endocrine cells, they labeled mouse islets with a β-cell marker, a Cy5 dye conjugate of Exendin-4 peptide (Ex4) (Scheme 3). Ex4 is a high affinity ligand of the glucagon like peptide 1 receptor (GLP-1R). Since GLP-1R is highly expressed in mouse islet β-cells,^46 fluorescently labeled conjugates of Ex4 are rapidly internalized into β-cells through receptor-mediated endocytosis to mark β-cells.^36, 47 After labeling mouse islets with Ex4-Cy5, the inventors dispersed the islets into single cells and labeled them with ZIGIR-2 (FIG. 10A). […] To identify each subset of cells, the inventors isolated them by FACS and analyzed the sorted cells by immunofluorescence using antibodies against insulin, glucagon, and somatostatin. The immunofluorescence result confirmed that P1 and P2 subsets were essentially pure β-cells (99±0.3%, N=3) and α-cells (98±0.5%, N=3), respectively (FIG. 10C). […] The remaining ˜20% of cells in P3 and most cells in P4 were not stained by any of the three hormone antibodies. These cells likely represented rare […], islet endothelial cells or lymphoid cells, and residual exocrine cells.
Mouse islets were isolated as previously described (Li et al., 2011) by perfusing Collagenase P (Roche, 1.4 mg/mL in HBSS with 5 mM glucose) through the common bile duct. Following a 15 min digestion at 37° C., the pancreas digestion was washed twice with HBSS by centrifugation and the islets were hand-picked under a dissection scope. Isolated islets were cultured 2-4 hours in RPMI-1640 medium (GIBCO, #11875-093) supplemented with 10% (v/v) FBS, 2.0 mM sodium-pyruvate, 100 U/mL penicillin and […] at 37° C. in 5% CO2. To distinguish islet β-cells from non-β cells, islets were labeled with a fluorescently labeled exendin-4 derivative as previously described (Kim et al., 2017). Briefly, Ex4-Cy5 (100 nM) was added to the culture medium 2 hours before islet dispersion. ZIGIR labeling was carried out subsequently after islet dispersion. Mouse islets were dispersed with 0.05% Trypsin solution in DPBS at 37° C. for 15 min. The dispersed islet cells were incubated with 0.5 μM ZIGIR-1 (or ZIGIR-2) at 37° C. for 15 min in the cell sorting buffer (SAB Buffer containing 3 mM glucose, 0.5% BSA and 0.1 mg/mL DNase I (Roche)). The cells were then washed twice with ice-cold SAB and resuspended in the cell sorting buffer. The labeled cells were analyzed by flow cytometry on a LSRFortessa cell analyzer (BD Biosciences). DAPI (200 ng/mL) was added to the cell suspension prior to flow cytometry to distinguish live cells (DAPI negative) from dead cells (DAPI positive). Only live cells were analyzed.

[1] = ZIGIR-2 and Ex4-Cy5 labeling, N=3

Question: For `CN(C)c1ccc2c(-c3ccc(NCCN(CCc4ccccn4)Cc4ccccn4)cc3C(=O)[O-])c3ccc(=[N+](C)C)cc-3oc2c1` [ZIGIR-2], which “median fluorescence intensity (MFI) in α-cells versus δ-cells” value is on record?
Answer: nearly an order of magnitude stronger

Question: What about the “median fluorescence intensity (MFI) in α-cells, weaker than in β-cells” value of the same molecule?
Answer: about 5 times

Question: What about the “α-cells in sorted P2 subset” value [1] of the same molecule?
Answer: 98±0.5%

Question: What about the “β-cells in sorted P1 subset” value [1] of the same molecule?
Answer: 99±0.3%

Question: And the “δ-cells in sorted P3 subset” value [1]?
Answer: 81±4.8%

Question: What about the “ability to resolve islet cells into subsets by granular Zn^2+ activity” value (compared with commercially available Zn^2+ sensors) of the same molecule?
Answer: able to resolve islet cells into distinct subsets
